These are literature values, as cited in US20230120480A1, “METHODS FOR REMOVING CONTAMINANTS FROM PLANT-DERIVED PHARMACEUTICALS” (priority 2021, published 2023).

Test system in one series: not given
Turning to `CCCc1cc(O)c2c(c1)OC1(C)CCC(C(C)(C)O)C2C1` (centres unmarked) [Cannabiglendol], the “Water Soluble?” value is “No”.
For `C=C(C)[C@@H]1CCC(C)=C[C@H]1c1c(O)cc(CCCCC)c(C(=O)O)c1O` [Cannabidiolic acid], the “Water Soluble?” value was “No”.
On to `C=C(C)c1ccc(C)cc1-c1c(O)cc(CCC)cc1O` [Cannabinodivarin], for which the “Water Soluble?” value is recorded as “No”.
Regarding `CCCc1cc2c(c(O)c1C(=O)O)[C@@H]1C=C(C)CC[C@H]1C(C)(C)O2` [Delta-9-tetrahydrocannabivarinic acid], the “Water Soluble?” value is “Yes”.
As for `C=C(C)[C@@H]1CC[C@](C)(O)[C@H]2Oc3cc(CCCCC)cc(O)c3[C@@H]12` [Cannabielsoin], the “Water Soluble?” value is “No”.
Consider `CCCCc1cc2c(c(O)c1C(=O)O)[C@@H]1C=C(C)CC[C@H]1C(C)(C)O2` [Delta-9-tetrahydrocannabinolic acid-C4], for which the “Water Soluble?” value is reported as “Yes”.
As to `C=C(C)[C@@H]1CC[C@](C)(O)[C@H]2Oc3cc(CCCCC)c(C(=O)O)c(O)c3[C@@H]12` [Cannabielsoin acid A], the “Water Soluble?” value is on record as “No”.
As for `C=C(C)[C@@H]1CCC(C)=C[C@H]1c1c(O)cc(CCC)cc1O` [Cannabidivarin], the “Water Soluble?” value is on record as “No”.
With `CCCCCc1cc(O)c(C/C=C(\C)CCC=C(C)C)c(O)c1` [Cannabigerol], the “Water Soluble?” value is “No”.
Turning to `CCCc1cc(O)c(C/C=C(\C)CCC=C(C)C)c(O)c1C(=O)O` [Cannabigerovarinic acid], the “Water Soluble?” value is reported as “Yes”.
With `C=C(C)[C@@H]1CC[C@](C)(O)[C@H]2Oc3c(C(=O)O)c(CCCCC)cc(O)c3[C@@H]12` [Cannabielsoic acid B], the “Water Soluble?” value is listed as “No”.
`C=C(C)c1ccc(C)cc1-c1c(O)cc(CCCCC)cc1O` [Cannabinodiol]: the “Water Soluble?” value was “No”.
As to `CCCCCc1cc2c(c(O)c1C(=O)O)[C@@H]1CC(C)=CC[C@H]1C(C)(C)O2` [Delta-8-tetrahydrocannabinolic acid], the “Water Soluble?” value was “Yes”.
As to `CCCCCc1cc(O)c2c(c1)OC(C)(C)C1=C2C(OCC)C(C)(O)CC1` (centres unmarked) [10-Ethoxy-9-hydroxy-delta-6a-tetrahydrocannabinol], the “Water Soluble?” value was “No”.
As to `CCCCCc1cc(O)c2c(c1)OC(C)(C)C1CC=C(C)CC21` (centres unmarked) [Delta-8-tetrahydrocannabinol], the “Water Soluble?” value was “No”.
Regarding `CCCCCc1cc(O)c2c(c1)OC(C)(C)[C@@H]1CCC(C)=C[C@@H]21` [Delta-9-tetrahydrocannabinol, reference compound], the “Water Soluble?” value is reported as “No”.
Regarding `CC1=CC2c3c(cc(C)c(C(=O)O)c3O)OC(C)(C)C2CC1` (centres unmarked) [Delta-9-tetrahydrocannabiorcolic acid], the “Water Soluble?” value is listed as “Yes”.
Cannabifuran: the “Water Soluble?” value is listed as “No”.
As for `CCCCCc1cc(O)c2c(c1C(=O)O)OC(C)(C)[C@@H]1CCC(C)=C[C@@H]21` [Delta-9-tetrahydrocannabinolic acid B], the “Water Soluble?” value is recorded as “Yes”.
On to Dehydrocannabifuran, for which the “Water Soluble?” value is recorded as “No”.
Regarding `CCCCc1cc(O)c2c(c1)OC(C)(C)C1CCC(C)=CC21` (centres unmarked) [Delta-9-tetrahydrocannabinol-C4], the “Water Soluble?” value is given as “No”.
`CCCCCc1cc(O)c2c(c1)OC(C)(C)C1=C2CC(C)(O)C(O)C1` (centres unmarked) [8,9-Dihydroxy-delta-6a-tetrahydrocannabinol]: the “Water Soluble?” value is “No”.
With `CCCCCc1cc2c(c(O)c1C(=O)O)C=CC(C)(CCC=C(C)C)O2` (centres unmarked) [Cannabichromenic acid], the “Water Soluble?” value was “Yes”.
`CCCCCc1cc(O)c(C/C=C(\C)CCC=C(C)C)c(O)c1C(=O)O` [Cannabigerolic acid]: the “Water Soluble?” value was “Yes”.
For `CCCCCc1cc2c(c(O)c1C(=O)O)-c1cc(C)ccc1C(C)(C)O2` [Cannabinolic acid], the “Water Soluble?” value was “Yes”.

A further series relates to humans.
On to `CCCCOCCOCCOCc1cc2c(cc1CCC)OCO2` [Piperonyl butoxide], for which the toxicity to humans entry was “non-toxic”.
